For this assay, the target named is T1, BRC4/RAD51 interaction (Homo sapiens, UniProt Q06609).
T1 construct: purchased Creative Biomart (Rad51); Life Technologies (BRC4 peptide)
T1 sequence (Q06609 1-339): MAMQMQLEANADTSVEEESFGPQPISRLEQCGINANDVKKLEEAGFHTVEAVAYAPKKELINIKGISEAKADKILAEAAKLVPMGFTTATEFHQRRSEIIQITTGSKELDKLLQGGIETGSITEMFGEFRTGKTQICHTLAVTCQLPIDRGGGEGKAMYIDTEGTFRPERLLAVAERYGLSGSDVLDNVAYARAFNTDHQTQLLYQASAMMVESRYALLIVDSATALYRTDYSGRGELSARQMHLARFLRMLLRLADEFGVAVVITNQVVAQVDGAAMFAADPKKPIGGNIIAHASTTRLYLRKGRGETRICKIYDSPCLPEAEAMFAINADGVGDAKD
In words: Competitive ELISA assay, disruption of BRC4/RAD51 interaction. Type of assay: binding. The settings on record: human Rad51, biotinylated BRC4 peptide. The gist of the method:
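Competitive ELISA: plates coated with biotinylated BRC4 peptide, blocked with 1% BSA/PBST, then hybridized overnight with human Rad51 protein. Compounds tested in triplicate dose-response, […], 1% DMSO. Bound Rad51 detected colorimetrically with anti-Rad51 antibody, HRP secondary and TMB quenched with HCl.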

With `CCC(=O)N1N=C(c2c(-c3ccccc3)c3cc(Cl)ccc3[nH]c2=O)CC1c1ccc(OC)cc1` (stereo not shown) [d.12, 6-chloro-3-[3-(4-methoxyphenyl)-2-propanoyl-3,4-dihydropyrazol-5-yl]-4-phenyl-1H-quinolin-2-one], the response was half-maximal at 19 µM (EC50).

The values are drawn from patent US12459914B2, “Compounds and compositions for the treatment of tumors” (FONDAZIONE ISTITUTO ITALIANO DI TECNOLOGIA, priority 2019, dated 2025).
